Columns and labels:
[1] = system: H1N1 influenza A/Puerto Rico/8/34 (PR8 influenza virus strain); assay: Influenza model mice study: body weight and survival after D-amino acid administration; format: in vivo, C57BL6 mice
Description: (§1) FIG. 1 is a schematic diagram showing the experimental protocol for D-AA administration (+D-AA) to IAV and Mock in Example 1. C57BL6 mice (SLC, Tokyo, Japan) raised in a specific pathogen control facility were used. In order to increase the amount of virus in the mice in a short period of time, […] water containing 50 times the TCID50 (median tissue culture infectious dose, 50% infectious dose) of H1N1 influenza A/Puerto Rico/8/34 (PR8 influenza virus strain (ATCC, Manassas, USA) was administered intranasally to anesthetized 4-week-old individuals to infect them. After infection, individuals in each group were weighed and blood samples were collected on a predetermined schedule, and plasma chiral amino acids (D-amino acids and L-amino acids) were quantitatively analyzed by 2D-HPLC.

[2] = system: SARS-CoV-2; assay: COVID-19 model mice study: body weight and survival after D-Ala administration; format: in vivo, CAG-hACE2 mice
Protocol: FIG. 10 is a schematic diagram of the experimental protocol using coronavirus-infected mice in Example 2. CAG-hACE2 mice susceptible to SARS-CoV-2, which were developed at the National Institute of Biomedical Innovation, Health and Nutrition, were used. 2×10^2 to 10^4 of TCID50 of SARS-CoV-2 was administered to anesthetized 8—to 12-week-old individuals for bronchial infection to create a mouse model of coronavirus infection (Non-Patent Literature 9).
FIG. 12 is a schematic diagram of the experimental schedule of D-Ala administration to coronavirus-infected mice in Example 2. 8—to 12-week-old male and female CAG-hACE2 mice were subjected to intraperitoneal administration with a predetermined dose of D-Ala twice daily, which was stared from 2 days prior to the experiment. The mice were then infected with SARS-CoV-2 via the respiratory tract.

[3] = system: H1N1 influenza A/Puerto Rico/8/34 (PR8 influenza virus strain); assay: Viral plaque quantification assay of lung tissue in influenza model mice; format: in vivo, C57BL6 mice; details: FIG. 3A; day 5 after D-Ala administration; IAV+D-Ala vs IAV group, n=3 to 7
Description: as §1
FIG. 3A is a graph showing the results of the viral plaque quantification assay of lung tissue on day 5 after D-Ala administration in the Mock, IAV, and IAV+D-Ala groups (n=3 to 7) in Example 1.

[4] = FIG. 8, IAV (Vehicle), IAV+D-Ser, IAV+D-Ala groups
[5] = FIG. 9, IAV (Vehicle), IAV+D-Ser, IAV+D-Ala groups

| Compound | survival curves, Kaplan-Meier analysis with death as the endpoint [1, 4] | rates of change in body weight [1, 5] | survival curves, Kaplan-Meier analysis with death as the endpoint ([2]; FIG. 14, SCV (Vehicle) vs SCV+D-Ala) | rates of change in body weights over time ([2]; FIG. 17, SCV (Vehicle) vs SCV+D-Ala) | survival curves, Kaplan-Meier analysis with weight loss and death as composite endpoints ([2]; FIG. 18, SCV (Vehicle) vs SCV+D-Ala) | survival curves by blood D-Ala level, Kaplan-Meier analysis with death as the endpoint ([2]; FIG. 19, SCV+D-Ala group split into high (>4.72 μM) and low (<4.72 μM) BD-Ala) | rates of change in body weight ([1]; FIG. 2, IAV+D-Ala vs IAV group, n=3-10, *P<0.05) | survival curves, Kaplan-Meier analysis with death as the endpoint ([1]; FIG. 4, Mock, Mock+D-Ala, IAV, IAV+D-Ala groups, n=3-10) | amount of virus, viral plaque quantification assay of lung tissue [3] |
| --- | --- | --- | --- | --- | --- | --- | --- | --- | --- |
| N[C@H](CO)C(=O)O [D-Ser, D-serine] | suppressed the mortality | rates of weight loss were suppressed | – | – | – | – | – | – | – |
| C[C@@H](N)C(=O)O [D-Ala, D-alanine] | suppressed the mortality | rates of weight loss were suppressed | suppressed the mortality | smaller rate of decrease in body weights | suppressed the weight loss and the mortality | better prognosis | rates of weight loss were suppressed | suppressed the mortality rate | increase in the amount of virus in the IAV+D-Ala group was suppressed |
